Results as given in PubChem BioAssay AID1259407 (Chemical Carcinogenesis Research Information System (CCRIS), 2018).
Activity calls are given as the source filed them. No rule for the calls is given here.

Tested on: CCRIS mutagenicity, Ames/micronucleus/aberration tests
Experiment: CCRIS mutagenicity studies
[1] = Test System: AMES SALMONELLA TYPHIMURIUM, Strain/Indicator: TA100, Metabolic Activation: NONE, Method: STANDARD PLATE
[2] = Test System: AMES SALMONELLA TYPHIMURIUM, Strain/Indicator: TA98, Metabolic Activation: HAMSTER, LIVER, S-9, AROCLOR 1254 (10%), Method: PREINCUBATION
[3] = Test System: AMES SALMONELLA TYPHIMURIUM, Strain/Indicator: TA98, Metabolic Activation: NONE, Method: PREINCUBATION
[4] = Test System: AMES SALMONELLA TYPHIMURIUM, Strain/Indicator: TA98, Metabolic Activation: RAT, LIVER, S-9, AROCLOR 1254 (10%), Method: PREINCUBATION
[5] = Test System: AMES SALMONELLA TYPHIMURIUM, Strain/Indicator: TA100, Metabolic Activation: HAMSTER, LIVER, S-9, AROCLOR 1254 (10%), Method: PREINCUBATION
[6] = Test System: AMES SALMONELLA TYPHIMURIUM, Strain/Indicator: TA100, Metabolic Activation: NONE, Method: PREINCUBATION
[7] = Test System: AMES SALMONELLA TYPHIMURIUM, Strain/Indicator: TA100, Metabolic Activation: RAT, LIVER, S-9, AROCLOR 1254 (10%), Method: PREINCUBATION
[8] = Test System: AMES SALMONELLA TYPHIMURIUM, Strain/Indicator: TA1535, Metabolic Activation: HAMSTER, LIVER, S-9, AROCLOR 1254 (10%), Method: PREINCUBATION
[9] = Test System: AMES SALMONELLA TYPHIMURIUM, Strain/Indicator: TA1535, Metabolic Activation: NONE, Method: PREINCUBATION
[10] = Test System: AMES SALMONELLA TYPHIMURIUM, Strain/Indicator: TA1535, Metabolic Activation: RAT, LIVER, S-9, AROCLOR 1254 (10%), Method: PREINCUBATION
[11] = Test System: AMES SALMONELLA TYPHIMURIUM, Strain/Indicator: TA1537, Metabolic Activation: HAMSTER, LIVER, S-9, AROCLOR 1254 (10%), Method: PREINCUBATION
[12] = Test System: AMES SALMONELLA TYPHIMURIUM, Strain/Indicator: TA1537, Metabolic Activation: NONE, Method: PREINCUBATION
[13] = Test System: AMES SALMONELLA TYPHIMURIUM, Strain/Indicator: TA1537, Metabolic Activation: RAT, LIVER, S-9, AROCLOR 1254 (10%), Method: PREINCUBATION

SMILES | mutagenic call [1] | mutagenic call [2] | mutagenic call [3] | mutagenic call [4] | mutagenic call [5] | mutagenic call [6] | mutagenic call [7] | mutagenic call [8] | mutagenic call [9] | mutagenic call [10] | mutagenic call [11] | mutagenic call [12] | mutagenic call [13] | also measured
O=c1c(Cl)c(Cl)cnn1S(=O)(=O)c1ccc(Cl)cc1Cl | inactive; negative |  |  |  |  |  |  |  |  |  |  |  |  | mutagenic call (Test System: AMES SALMONELLA TYPHIMURIUM, Strain/Indicator: TA98, Metabolic Activation: NONE, Method: STANDARD PLATE): inactive; negative; mutagenic call (Test System: AMES SALMONELLA TYPHIMURIUM, Strain/Indicator: TA98, Metabolic Activation: RAT, LIVER, S-9, AROCLOR 1254, Method: STANDARD PLATE): inactive; negative; mutagenic call (Test System: AMES SALMONELLA TYPHIMURIUM, Strain/Indicator: TA100, Metabolic Activation: RAT, LIVER, S-9, AROCLOR 1254, Method: STANDARD PLATE): inactive; negative; mutagenic call (Test System: AMES SALMONELLA TYPHIMURIUM, Strain/Indicator: TA1535, Metabolic Activation: NONE, Method: STANDARD PLATE): inactive; negative; mutagenic call (Test System: AMES SALMONELLA TYPHIMURIUM, Strain/Indicator: TA1535, Metabolic Activation: RAT, LIVER, S-9, AROCLOR 1254, Method: STANDARD PLATE): inactive; negative; mutagenic call (Test System: AMES SALMONELLA TYPHIMURIUM, Strain/Indicator: TA1537, Metabolic Activation: NONE, Method: STANDARD PLATE): inactive; negative; mutagenic call (Test System: AMES SALMONELLA TYPHIMURIUM, Strain/Indicator: TA1537, Metabolic Activation: RAT, LIVER, S-9, AROCLOR 1254, Method: STANDARD PLATE): inactive; negative
Oc1ccc2c3ccccc3c3cc4ccccc4cc3c2c1O |  |  |  |  |  |  |  |  |  |  |  |  |  | mutagenic call (Test System: AMES SALMONELLA TYPHIMURIUM, Strain/Indicator: TA100, Metabolic Activation: RAT, LIVER, S-9, AROCLOR 1254, Method: PREINCUBATION): active; positive
CCCCC(CC)COS(=O)(=O)O (centres undefined) |  | inactive; negative | inactive; negative | inactive; negative | inactive; negative | inactive; negative | inactive; negative | inactive; negative | inactive; negative | inactive; negative | inactive; negative | inactive; negative | inactive; negative | mutagenic call (End Point: IN VITRO CHROMOSOMAL ABERRATIONS, Test System: CHO-LB CELLS, Metabolic Activation: NONE): inactive; negative; mutagenic call (End Point: IN VITRO CHROMOSOMAL ABERRATIONS, Test System: CHO-LB CELLS, Metabolic Activation: RAT, LIVER, S-9, AROCLOR 1254): inactive; negative; mutagenic call (Test System: MOUSE LYMPHOMA, Strain/Indicator: L5178Y (TK+/TK-), Metabolic Activation: NONE, Method: SUSPENSION/PLATE): inactive; negative; mutagenic call (Test System: MOUSE LYMPHOMA, Strain/Indicator: L5178Y (TK+/TK-), Metabolic Activation: RAT, LIVER, S-9, AROCLOR 1254, Method: SUSPENSION/PLATE): inactive; negative
O=CNc1ccc(Oc2ccc(Cl)cc2Cl)cc1 | inactive; negative |  |  |  |  |  |  |  |  |  |  |  |  | mutagenic call (Test System: AMES SALMONELLA TYPHIMURIUM, Strain/Indicator: TA100, Metabolic Activation: RAT, LIVER, S-9, KANECLOR 500, Method: STANDARD PLATE): active; positive
CCCCCCCCC/C=C/CC1CC(=O)OC1=O (centres undefined) |  | inactive; negative | inactive; negative | inactive; negative | inactive; negative | inactive; negative | inactive; negative | inactive; negative | inactive; negative | inactive; negative | inactive; negative | inactive; negative | inactive; negative | 
